Laboratory results published in patent US20250268959A1, “COMPOSITIONS CONTAINING INDOLE-DERIVED METABOLITES AND METHODS OF USE THEREOF” (Imvela Corp., priority 2024, published 2025).
Where two headings read alike, the source gives them in different places.

What was measured:
AhR [1] = biological target: T1, AhR (Canis lupus familiaris, UniProt A0A8I3RSX6); assay: AhR activation, in vitro luminescence assay in canine cell lines expressing AhR; format: cell-based; settings: canine cell line expressing AhR; 200 μM; normalized to methylcholanthrene (FIG. 5)
T1 sequence (A0A8I3RSX6 1-853): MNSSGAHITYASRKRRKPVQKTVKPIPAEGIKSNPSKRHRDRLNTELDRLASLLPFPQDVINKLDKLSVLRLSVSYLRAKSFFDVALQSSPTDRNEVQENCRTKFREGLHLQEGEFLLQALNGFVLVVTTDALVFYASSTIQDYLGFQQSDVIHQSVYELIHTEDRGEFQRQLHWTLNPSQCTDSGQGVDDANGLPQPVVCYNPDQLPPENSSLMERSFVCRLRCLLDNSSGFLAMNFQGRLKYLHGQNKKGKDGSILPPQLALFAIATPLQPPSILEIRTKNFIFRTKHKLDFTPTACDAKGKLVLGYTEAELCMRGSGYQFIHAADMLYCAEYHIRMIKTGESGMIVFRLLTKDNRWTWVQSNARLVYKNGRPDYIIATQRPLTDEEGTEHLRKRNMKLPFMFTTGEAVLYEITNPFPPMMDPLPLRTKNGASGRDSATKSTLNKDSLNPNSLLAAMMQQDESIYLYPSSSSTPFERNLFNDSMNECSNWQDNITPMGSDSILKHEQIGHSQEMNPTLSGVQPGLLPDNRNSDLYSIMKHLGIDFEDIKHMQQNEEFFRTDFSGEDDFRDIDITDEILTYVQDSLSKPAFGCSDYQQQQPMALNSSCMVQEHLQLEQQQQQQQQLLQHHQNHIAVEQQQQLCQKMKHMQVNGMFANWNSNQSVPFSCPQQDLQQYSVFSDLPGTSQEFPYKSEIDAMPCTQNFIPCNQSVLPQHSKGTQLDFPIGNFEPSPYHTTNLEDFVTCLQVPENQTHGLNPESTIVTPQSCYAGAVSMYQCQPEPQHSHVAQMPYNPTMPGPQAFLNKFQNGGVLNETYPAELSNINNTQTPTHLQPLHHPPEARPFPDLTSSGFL
Description: (§1) The utility of ILA and IAld in multiple host was validated by an in vitro assay. Human or canine cell lines expressing AhR were exposed to ILA or IAld at 200 μM, and AhR activation was assayed using in vitro luminescence.

AhR [2] = biological target: T2, AhR (Homo sapiens, UniProt P35869); assay: AhR activation, in vitro luminescence assay in human cell lines expressing AhR; format: cell-based; settings: human cell line expressing AhR; 200 μM; normalized to methylcholanthrene (FIG. 5)
T2 sequence (P35869 11-848): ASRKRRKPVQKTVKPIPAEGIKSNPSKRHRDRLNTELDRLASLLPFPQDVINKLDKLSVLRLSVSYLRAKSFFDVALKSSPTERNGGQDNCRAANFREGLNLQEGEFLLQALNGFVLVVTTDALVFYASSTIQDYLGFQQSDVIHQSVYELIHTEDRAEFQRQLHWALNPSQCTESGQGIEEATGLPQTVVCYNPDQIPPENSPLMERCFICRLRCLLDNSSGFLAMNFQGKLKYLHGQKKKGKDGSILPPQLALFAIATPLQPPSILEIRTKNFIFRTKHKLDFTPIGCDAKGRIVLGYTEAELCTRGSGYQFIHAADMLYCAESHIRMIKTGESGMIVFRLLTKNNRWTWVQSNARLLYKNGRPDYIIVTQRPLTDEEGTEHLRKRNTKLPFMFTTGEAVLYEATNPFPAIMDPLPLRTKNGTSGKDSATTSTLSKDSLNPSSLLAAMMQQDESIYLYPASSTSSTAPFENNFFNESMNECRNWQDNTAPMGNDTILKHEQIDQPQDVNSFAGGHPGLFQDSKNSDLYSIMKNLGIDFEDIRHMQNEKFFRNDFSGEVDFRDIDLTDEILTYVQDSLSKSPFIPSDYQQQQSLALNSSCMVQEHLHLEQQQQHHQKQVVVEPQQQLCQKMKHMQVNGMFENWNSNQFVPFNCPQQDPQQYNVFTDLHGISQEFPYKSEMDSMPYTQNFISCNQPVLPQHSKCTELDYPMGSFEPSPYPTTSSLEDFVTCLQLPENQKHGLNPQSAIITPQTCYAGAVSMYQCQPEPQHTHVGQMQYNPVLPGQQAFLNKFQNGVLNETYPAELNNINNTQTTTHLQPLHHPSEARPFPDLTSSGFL
Description: as §1

[3] = mice; IPA supplementation; in 2 weeks; cited from earlier work
[4] = rats; IPA supplementation; over 1 week; cited from earlier work

SMILES | AhR activation (AhR [1]) | AhR activation (AhR [2]) | reduction of weight gain [3] | reduction of weight gain [4]
O=Cc1c[nH]c2ccccc12 [IAld, indole-3-carboxaldehyde] | AhR activation was observed | AhR activation was observed |  | 
O=C(O)C(O)Cc1c[nH]c2ccccc12 (stereo not drawn) [ILA, indole-3-lactic acid] | AhR activation was observed | AhR activation was observed |  | 
O=C(O)CCc1c[nH]c2ccccc12 [IPA, indole-3-propionic acid] |  |  | ~60% | ~50%
